Source: ChEMBL document CHEMBL3774317, “Design and synthesis of novel tamoxifen analogues that avoid CYP2D6 metabolism” (Eur J Med Chem, 2016)

Tests used:
Type in all cases: functional
[1] = system: SK-MEL-5; experiment: Cytotoxicity against human SK-MEL-5 cells assessed as cell growth at 10^-7 M after 48 hrs by SRB assay; details: SK-MEL-5, 48 h, read-out: Activity
[2] = Cytotoxicity against human OVCAR4 cells assessed as cell growth at […] after 48 hrs by SRB assay; details: OVCAR-4, 48 h, read-out: Activity
[3] = Cytotoxicity against human OVCAR8 cells assessed as cell growth at 10^-7 M after 48 hrs by SRB assay; details: OVCAR-8, 48 h, read-out: Activity
[4] = Cytotoxicity against human HL-60(TB) cells assessed as cell growth at 10^-6 M after 48 hrs by SRB assay; details: HL-60, 48 h, read-out: Activity
[5] = Cytotoxicity against human RPMI8226 cells assessed as cell growth at 10^-6 M after 48 hrs by SRB assay; details: RPMI-8226, 48 h, read-out: Activity
[6] = system: NCI-H522; experiment: Cytotoxicity against human NCI-H522 cells assessed as cell growth at 10^-6 M after 48 hrs by SRB assay; details: NCI-H522, 48 h, read-out: Activity
[7] = system: MCF7; experiment: Cytotoxicity against human MCF7 cells assessed as cell growth at 10^-4 M after 48 hrs by SRB assay; details: MCF7, 48 h, read-out: Activity
[8] = Cytotoxicity against human Caki1 cells assessed as cell growth at 10^-6 M after 48 hrs by SRB assay; details: CAKI-1, 48 h, read-out: Activity
[9] = system: MDA-MB-231; experiment: Cytotoxicity against human MDA-MB-231 cells assessed as cell growth at 10^-6 M after 48 hrs by SRB assay; details: MDA-MB-231, 48 h, read-out: Activity
[10] = Cytotoxicity against human Hs 578T cells assessed as cell growth at 10^-6 M after 48 hrs by SRB assay; details: read-out: Activity
[11] = Cytotoxicity against human MOLT4 cells assessed as cell growth at 10^-5 M after 48 hrs by SRB assay; details: MOLT-4, 48 h, read-out: Activity
[12] = Cytotoxicity against human HOP62 cells assessed as cell growth at 10^-5 M after 48 hrs by SRB assay; details: HOP-62, 48 h, read-out: Activity
[13] = Cytotoxicity against human HOP92 cells assessed as cell growth at 10^-5 M after 48 hrs by SRB assay; details: HOP-92, 48 h, read-out: Activity
[14] = system: NCI-H460; experiment: Cytotoxicity against human NCI-H460 cells assessed as cell growth at 10^-5 M after 48 hrs by SRB assay; details: NCI-H460, 48 h, read-out: Activity
[15] = system: HT-29; experiment: Cytotoxicity against human HT-29 cells assessed as cell growth at 10^-5 M after 48 hrs by SRB assay; details: HT-29, 48 h, read-out: Activity
[16] = system: NCI-H522; experiment: Cytotoxicity against human NCI-H522 cells assessed as cell growth at 10^-8 M after 48 hrs by SRB assay; details: NCI-H522, 48 h, read-out: Activity
[17] = Cytotoxicity against human HCT116 cells assessed as cell growth at 10^-8 M after 48 hrs by SRB assay; details: HCT-116, 48 h, read-out: Activity
[18] = system: KM12; experiment: Cytotoxicity against human KM12 cells assessed as cell growth at 10^-8 M after 48 hrs by SRB assay; details: KM12, 48 h, read-out: Activity
[19] = system: Malme-3M; experiment: Cytotoxicity against human MALME-3M cells assessed as cell growth at 10^-8 M after 48 hrs by SRB assay; details: read-out: Activity
[20] = Cytotoxicity against human RXF393 cells assessed as cell growth at 10^-8 M after 48 hrs by SRB assay; details: RXF 393, 48 h, read-out: Activity
[21] = system: MDA-MB-231; experiment: Cytotoxicity against human MDA-MB-231 cells assessed as cell growth at 10^-8 M after 48 hrs by SRB assay; details: MDA-MB-231, 48 h, read-out: Activity
[22] = Cytotoxicity against human UACC257 cells assessed as cell growth at 10^-5 M after 48 hrs by SRB assay; details: UACC-257, 48 h, read-out: Activity
[23] = Cytotoxicity against human HOP62 cells assessed as cell growth at 10^-4 M after 48 hrs by SRB assay; details: HOP-62, 48 h, read-out: Activity
[24] = system: M14; experiment: Cytotoxicity against human M14 cells assessed as cell growth at 10^-4 M after 48 hrs by SRB assay; details: M14, 48 h, read-out: Activity
[25] = system: NCI-H460; experiment: Cytotoxicity against human NCI-H460 cells assessed as cell growth at 50 nM after 48 hrs by SRB assay; details: NCI-H460, 48 h, read-out: Activity
[26] = Cytotoxicity against human COLO205 cells assessed as cell growth at 50 nM after 48 hrs by SRB assay; details: COLO 205, 48 h, read-out: Activity
[27] = Cytotoxicity against human HCC2998 cells assessed as cell growth at 50 nM after 48 hrs by SRB assay; details: HCC 2998, 48 h, read-out: Activity
[28] = Cytotoxicity against human TK10 cells assessed as cell growth at 50 nM after 48 hrs by SRB assay; details: TK-10, 48 h, read-out: Activity
[29] = system: MDA-MB-231; experiment: Cytotoxicity against human MDA-MB-231 cells assessed as cell growth at 50 nM after 48 hrs by SRB assay; details: MDA-MB-231, 48 h, read-out: Activity
[30] = Cytotoxicity against human SF295 cells assessed as cell growth at 50 uM after 48 hrs by SRB assay; details: SF-295, 48 h, read-out: Activity
[31] = Cytotoxicity against human SF539 cells assessed as cell growth at 50 uM after 48 hrs by SRB assay; details: SF-539, 48 h, read-out: Activity
[32] = system: SK-MEL-28; experiment: Cytotoxicity against human SK-MEL-28 cells assessed as cell growth at 50 uM after 48 hrs by SRB assay; details: SK-MEL-28, 48 h, read-out: Activity
[33] = Cytotoxicity against human OVCAR4 cells assessed as cell growth at 50 uM after 48 hrs by SRB assay; details: OVCAR-4, 48 h, read-out: Activity
[34] = Cytotoxicity against human PC3 cells assessed as cell growth at 50 uM after 48 hrs by SRB assay; details: PC-3, 48 h, read-out: Activity
[35] = Cytotoxicity against human SNB75 cells assessed as cell growth at 0.5 uM after 48 hrs by SRB assay; details: SNB-75, 48 h, read-out: Activity
[36] = system: Malme-3M; experiment: Cytotoxicity against human MALME-3M cells assessed as cell growth at 0.5 uM after 48 hrs by SRB assay; details: read-out: Activity
[37] = system: M14; experiment: Cytotoxicity against human M14 cells assessed as cell growth at 0.5 uM after 48 hrs by SRB assay; details: M14, 48 h, read-out: Activity
[38] = system: ACHN; experiment: Cytotoxicity against human ACHN cells assessed as cell growth at 0.5 uM after 48 hrs by SRB assay; details: read-out: Activity
[39] = system: T47D; experiment: Cytotoxicity against human T47D cells assessed as cell growth at 0.5 uM after 48 hrs by SRB assay; details: read-out: Activity
[40] = system: EKVX; experiment: Cytotoxicity against human EKVX cells assessed as cell growth at 5 nM after 48 hrs by SRB assay; details: read-out: Activity
[41] = Cytotoxicity against human SF268 cells assessed as cell growth at 50 uM after 48 hrs by SRB assay; details: SF-268, 48 h, read-out: Activity

C/C(=C(/c1ccc(O)cc1)c1ccc(OCCN2CCCC2)cc1)c1ccccc1
growth at 0.1 µM [1]: 102%
growth at 0.1 µM [2]: 95%
growth at 0.1 µM [3]: 105%
growth at 1 µM [4]: 90%
growth at 1 µM [5]: 92%
growth at 1 µM [6]: 92%
growth at 100 µM [7]: -66%
growth at 1 µM [8]: 81%
growth at 1 µM [9]: 122%
growth at 1 µM [10]: 95%
growth at 10 µM [11]: 3%
growth at 10 µM [12]: -51%
growth at 10 µM [13]: -13%
growth at 10 µM [14]: -38%
growth at 10 µM [15]: -66%
growth at 0.01 µM [16]: 88%
growth at 0.01 µM [17]: 97%
growth at 0.01 µM [18]: 102%
growth at 0.01 µM [19]: 99%
growth at 0.01 µM [20]: 96%
growth at 0.01 µM [21]: 110%
growth at 10 µM [22]: -71%
growth at 100 µM [23]: -86%
growth at 100 µM [24]: -96%

CCCCCCCCCC(=O)Oc1ccc(/C(=C(/C)c2ccccc2)c2ccc(OCCN3CCCC3)cc2)cc1
growth at 0.05 µM [25]: 102%
growth at 0.05 µM [26]: 96%
growth at 0.05 µM [27]: 98%
growth at 0.05 µM [28]: 97%
growth at 0.05 µM [29]: 105%
growth at 50 µM [30]: -94%
growth at 50 µM [31]: -82%
growth at 50 µM [32]: -95%
growth at 50 µM [33]: -87%
growth at 50 µM [34]: -90%
growth at 0.5 µM [35]: 68%
growth at 0.5 µM [36]: 61%
growth at 0.5 µM [37]: 42%
growth at 0.5 µM [38]: 88%
growth at 0.5 µM [39]: 46%
growth at 0.005 µM [40]: 102%
growth at 50 µM [41]: -72%
